Where two headings read alike, the source gives them in different places.
Tests used:
DBA-2 mice = experiment: Glomerular filtration rate (GFR) by [14C]inulin clearance after bolus drug; type: in vivo
Protocol: British Journal of Cancer (1998) 78(11), 1457-1463 ? […] In contrast to Tomudex (ZD1694), ZD9331 may therefore be active against tumours with low FPGS activity. […] In view of the history of renal toxicity with some earlier TS inhibitors and the possible therapeutic use of bolus ZD9331, we have examined the effects of bolus ZD9331 dose and route of administration on plasma and kidney pharmacokinetics and renal function in mice. Renal function was assessed by measuring [14C]inulin clearance, and drug concentrations were assayed by reverse-phase high-performance liquid chromatography (HPLC). […] Kidney drug concentrations were slightly elevated in iv.- versus i.p.-treated animals at the low dose (50 mg kg-'), with a correspondingly larger area under the curve. However, at the highest dose (200 mg kg-'), peak kidney drug concentrations were 20-fold higher following i.v. administration than after i.p., with marked kidney retention, resulting in a 50-fold greater kidney drug exposure for the i.v. versus the i.p. route. […] These adverse effects can be readily overcome by i.p. administration, indicating the likely need for short infusions in clinical settings. […] Early studies established that nephrotoxicity may be a result of poor aqueous solubility of 2-amino compounds such as CB3717, and it was shown that 2-desamino CB3717 was more water soluble and less nephrotoxic (Jones et al, 1989; 1996). […] These polyglutamate forms also exibit intra- cellular retention, which may contribute to toxicity as well as anti- tumour activity. […] Such compounds might be expected to show activity in a different spectrum of tumours from ZD1694 and to have a more manageable toxicity profile because of the lack of retained cyto- toxic metabolites. […] MATERIALS AND METHODS Drug administration and animals The compound ZD933 1 (Figure 1) was provided as a white crystalline salt. ['4C]inulin was provided as a carboxylic acid (Amersham, UK, 250 µCi in 5 ml, specific activity 6.6 mCi mmol-') and diluted to an activity of 5 µCi ml-' in phosphate-buffered saline (PBS). ZD9331 was dissolved in 0.05 M sodium bicarbonate, 1457 1458 Ml Walton et al ~~ N Ny~~~14COOHH 0 H IN H N CH ~~~~H , 4 H3C N3 H Figure 1 The chemical structure of ZD9331 adjusted to pH 9.0 and administered either i.v. via the tail vein or i.p. at 0.01 ml g-' mouse body weight. [14C]inulin was administered at 0.05 gCi g-' (i.e. 0.01 ml g-') i.v. via the tail vein. Adult female DBA-2 mice were obtained from OLAC (Bicester, UK) and used at 8-12 weeks of age at a body weight of 15-25 g. Mice were housed in cages containing untreated sawdust and allowed access to food and water ad libitum. Sample preparation Plasma and tissue samples were prepared using standard tech- niques (Walton et al, 1996). Briefly, whole blood was obtained by cardiac puncture into heparinized syringes from halothane- anaesthetized mice. Plasma was prepared by centrifugation at 12 000 r.p.m. x 2 min in a bench-top microcentrifuge. Kidney and liver tissues were rapidly removed, washed and snap frozen on dry ice. Frozen plasma and tissues were stored at -20?C for up to 4 weeks prior to analysis. Individual samples were thawed on ice and handled rapidly. ZD9331 was extracted from whole plasma or tissue homogenates (33% w/v in 0.1 M Tris, pH 10.0) by the addition of an equal volume of acetonitrile, mixing and centrifugation and the super- natant removed for injection into the HPLC system. Samples were diluted with Tris buffer (0.1 M, pH 10.0) on to the linear part of the calibration curve prior to HPLC analysis. Extraction efficiencies were >95%. HPLC analysis Concentrations of ZD9331 were measured in biological samples using reversed phase HPLC on equipment supplied by Kontron (Watford, UK). Separations were carried out using stainless-steel columns heated at 45?C and packed with C18 Supelcosil ODS (10 cm x 4.6 mm, 5 µm bead size, Sigma, Dorset) and protected with NewGuard C18 columns (Anachem, Luton, UK). […]

L5178Y (TK-/-) lymphoma = test system: L5178Y (TK-/-) lymphoma; set-up: method as in Stephens et al, 1994; Jackman et al, 1997; conditions: ref Stephens et al, 1994, Jackman et al, 1997, cited from earlier work

C#CCN(Cc1cc2c(=O)[nH]c(C)nc2cc1C)c1ccc(C(=O)N[C@@H](CCc2nnn[nH]2)C(=O)O)c(F)c1 [ZD9331, (2S)-2-{O-fluoro-p-(N-(2,7-dimethyl-4-oxo-3,4-dihydroquinazolin-6-ylmethyl)-N-(prop-2-ynyl)amino}benzamido}-4-(tetrazol-5-yl)butyric acid]
effect on renal function (GFR) (DBA-2 mice; 50 mg kg-1, 4 h after administration): minimal effects on renal function
effect on GFR (DBA-2 mice; 150 mg kg-1 i.p., 24 h after administration): no effect
effect on GFR (DBA-2 mice; 150 mg kg-1 i.v., 4 h after administration): slight decrease in GFR
effect on GFR (DBA-2 mice; 150 mg kg-1 i.v., 24 h after administration): no effect
effect on GFR (DBA-2 mice; 200 mg kg-1 i.p.): minimal
effect on GFR (DBA-2 mice; 200 mg kg-1 i.v., 4 h after administration): profound decrease in GFR
effect on GFR (DBA-2 mice; 200 mg kg-1 i.v., 24 h after administration): GFR inhibition was less profound
nephrotoxicity (DBA-2 mice; active anti-tumour dose, 50 mg kg-1 i.p., mice): non-nephrotoxic
effect on renal function (GFR) (DBA-2 mice; doses up to 150 mg kg-1 i.v. or i.p., 4 or 24 h post treatment): no evidence of compromised renal function
anti-tumour activity (L5178Y (TK-/-) lymphoma; 24-h s.c. infusion, 3 mg kg-1): anti-tumour activity
anti-tumour activity (L5178Y (TK-/-) lymphoma; bolus administration, 50 mg kg-1): anti-tumour activity
